US20100267561A1, “HERBICIDAL PYRIDAZINONE DERIVATIVES” (priority 2007, published 2010)

How the values were obtained:
Assay type in all cases: in vivo
[1] = system: umbrella sedge (Cyperus difformis); assay: Test D flooded paddy plant response; settings: Flood, scale 0 to 100 (0 no effect, 100 complete control), 21 days
Source text: Three plastic pots (ca. 16-cm diameter) for each application rate were partially filled with sterilized Tama silt loam soil comprising a 35:50:15 ratio of sand, silt and clay and 2.6% organic matter. Separate plantings for each of the three pots were as follows. Seeds from the U.S. of ducksalad (Heteranthera limosa), umbrella sedge (Cyperus difformis) and purple redstem (Ammannia coccinea), were planted into one 16-cm pot for each rate. Seeds from the U.S. of rice flatsedge (Cyperus iria), bearded (Brdd.) sprangletop (Leptochloa fascicularis), one stand of 9 or 10 water-seeded rice seedlings (Oryza sativa cv. ‘Japonica—M202’), and one stand of 6 transplanted rice seedlings (Oryza sativa cv. ‘Japonica—M202’) were planted into one 16-cm pot for each rate. Seeds from the U.S. of barnyardgrass (Echinochloa crus-galli), late watergrass (Echinochloa oryzicola), early watergrass (Echinochloa oryzoides) and junglerice (Echinochloa colona) were planted into one 16-cm pot for each rate. Plantings were sequential so that crop and weed species were at the 2.0 to 2.5-leaf stage at time of treatment.
Potted plants were grown in a greenhouse with day/night temperature settings of 30/27° C., and supplemental balanced lighting was provided to maintain a 16-hour photoperiod. Test pots were maintained in the greenhouse until test completion.
At time of treatment, test pots were flooded to 3 cm above the soil surface, treated by application of test compounds directly to the paddy water, and then maintained at that water depth for the duration of the test. Effects of treatments on rice and weeds were visually evaluated by comparison to untreated controls after 21 days. Plant response ratings, summarized in Table D, are based on a scale of 0 to 100 where 0 is no effect and 100 is complete control. A dash (-) response means no test result.

[2] = system: tropical (T.) spiderwort (Commelina benghalensis); assay: Test E pre-/postemergence plant response; settings: scale 0 to 100
Outline: (§1)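 In this greenhouse assay, sown seeds received preemergence treatment and young plants of 2 to 18 cm (1- to 4-leaf stage) received postemergence treatment, both with compound in a non-phytotoxic solvent and surfactant vehicle. Effects were rated visually 14 to 21 days later on a 0–100 control scale.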

[3] = system: Canada horseweed (Conyza canadensis); assay: Test E pre-/postemergence plant response; settings: Postemergence, scale 0 to 100
Outline: as §1

[4] = system: common ragweed (Ambrosia elation); assay: Test E pre-/postemergence plant response; settings: scale 0 to 100
Outline: as §1

[5] = system: wild oat (AVEFA, Avena fatua); assay: Test F mixtures with safener cloquintocet-mexyl, pre-/postemergence plant response; settings: applied alone
[6] = system: winter barley (HORVX, Hordeum vulgare); assay: as above; settings: applied alone
[7] = system: winter wheat (TRZAW, Triticum aestivum); assay: as above; settings: applied alone

With `CCc1cc(-c2ccc(Cl)cc2)nn1-c1c(O)cnn(C)c1=O` [Compound 21] the “Plant response rating, Sedge, Umbrella” value ([1]; 16 g ai/ha) was 0, the “Plant response rating, Sedge, Umbrella” value ([1]; 32 g ai/ha) was 0 and the “Plant response rating, Sedge, Umbrella” value ([1]; 64 g ai/ha) was 0. The “Plant response rating, Sedge, Umbrella” value ([1]; 125 g ai/ha) was 0, the “Plant response rating, Sedge, Umbrella” value ([1]; 250 g ai/ha) was 0 and the “Plant response rating, Spiderwort, T.” value ([2]; 16 g ai/ha, Preemergence) was 0. The “Plant response rating, Spiderwort, T.” value ([2]; 31 g ai/ha, Preemergence) was 0, the “Plant response rating, Spiderwort, T.” value ([2]; 62 g ai/ha, Preemergence) was 0 and the “Plant response rating, Spiderwort, T.” value ([2]; Postemergence, 8 g ai/ha) was 0. The “Plant response rating, Spiderwort, T.” value ([2]; Postemergence, 16 g ai/ha) was 0, the “Plant response rating, Spiderwort, T.” value ([2]; Postemergence, 31 g ai/ha) was 0 and the “Plant response rating, Spiderwort, T.” value ([2]; Postemergence, 62 g ai/ha) was 0.

With `CCCc1cc(-c2ccc(Cl)cc2)nn1-c1c(O)cnn(C)c1=O` [Compound 43] the “Plant response rating, Sedge, Umbrella” value ([1]; 16 g ai/ha) was 0, the “Plant response rating, Sedge, Umbrella” value ([1]; 32 g ai/ha) was 0 and the “Plant response rating, Sedge, Umbrella” value ([1]; 64 g ai/ha) was 0. For the same compound, the “Plant response rating, Sedge, Umbrella” value ([1]; 125 g ai/ha) was 0 and the “Plant response rating, Sedge, Umbrella” value ([1]; 250 g ai/ha) was 0.

For `CCc1cc(-c2ccc(C(F)(F)F)cc2)nn1-c1c(OC(=O)OC(C)C)cnn(C)c1=O` [Compound 12], the “Plant response rating, Horseweed” value ([3]; 4 g ai/ha) was 0, the “Plant response rating, Horseweed” value ([3]; 8 g ai/ha) was 0 and the “Plant response rating, Horseweed” value ([3]; 31 g ai/ha) was 0. For the same compound, the “Plant response rating, Ragweed” value ([4]; 4 g ai/ha, Postemergence) was 0, the “Plant response rating, Ragweed” value ([4]; 31 g ai/ha, Preemergence) was 0 and the “Plant response rating, Ragweed” value ([4]; Postemergence, 8 g ai/ha) was 0. The “Plant response rating, Ragweed” value ([4]; Postemergence, 31 g ai/ha) was 0, the “Plant response rating, Ragweed” value ([4]; Preemergence, 4 g ai/ha) was 0 and the “AVEFA Obsd. (observed effect) plant response rating, scale 0 to 100” value ([5]; postemergence, 4 g a.i./ha) was 13. The “AVEFA Obsd. (observed effect) plant response rating, scale 0 to 100” value ([5]; postemergence, 8 g a.i./ha) was 98, the “AVEFA Obsd. (observed effect) plant response rating, scale 0 to 100” value ([5]; postemergence, 16 g a.i./ha) was 100 and the “AVEFA Obsd. (observed effect) plant response rating, scale 0 to 100” value ([5]; preemergence, 4 g a.i./ha) was 7. For the same compound, the “AVEFA Obsd. (observed effect) plant response rating, scale 0 to 100” value ([5]; preemergence, 8 g a.i./ha) was 92, the “AVEFA Obsd. (observed effect) plant response rating, scale 0 to 100” value ([5]; preemergence, 16 g a.i./ha) was 96 and the “HORVX Obsd. (observed effect) plant response rating, scale 0 to 100” value ([6]; postemergence, 4 g a.i./ha) was 0. For the same compound, the “HORVX Obsd. (observed effect) plant response rating, scale 0 to 100” value ([6]; postemergence, 8 g a.i./ha) was 32, the “HORVX Obsd. (observed effect) plant response rating, scale 0 to 100” value ([6]; postemergence, 16 g a.i./ha) was 65 and the “HORVX Obsd. (observed effect) plant response rating, scale 0 to 100” value ([6]; preemergence, 4 g a.i./ha) was 10. For the same compound, the “HORVX Obsd. (observed effect) plant response rating, scale 0 to 100” value ([6]; preemergence, 8 g a.i./ha) was 73, the “HORVX Obsd. (observed effect) plant response rating, scale 0 to 100” value ([6]; preemergence, 16 g a.i./ha) was 80 and the “TRZAW Obsd. (observed effect) plant response rating, scale 0 to 100” value ([7]; postemergence, 4 g a.i./ha) was 0. For the same compound, the “TRZAW Obsd. (observed effect) plant response rating, scale 0 to 100” value ([7]; postemergence, 8 g a.i./ha) was 18, the “TRZAW Obsd. (observed effect) plant response rating, scale 0 to 100” value ([7]; postemergence, 16 g a.i./ha) was 77 and the “TRZAW Obsd. (observed effect) plant response rating, scale 0 to 100” value ([7]; preemergence, 4 g a.i./ha) was 0. For the same compound, the “TRZAW Obsd. (observed effect) plant response rating, scale 0 to 100” value ([7]; preemergence, 8 g a.i./ha) was 75 and the “TRZAW Obsd. (observed effect) plant response rating, scale 0 to 100” value ([7]; preemergence, 16 g a.i./ha) was 97.

In the case of `Cc1cc(-c2ccc(Cl)cc2)nn1-c1c(OS(=O)(=O)c2ccccc2)cnn(C)c1=O` [Compound 35], the “Plant response rating, Spiderwort, T.” value ([2]; 16 g ai/ha, Preemergence) was 0, the “Plant response rating, Spiderwort, T.” value ([2]; 31 g ai/ha, Preemergence) was 0 and the “Plant response rating, Spiderwort, T.” value ([2]; 62 g ai/ha, Preemergence) was 0. The “Plant response rating, Spiderwort, T.” value ([2]; Postemergence, 8 g ai/ha) was 0, the “Plant response rating, Spiderwort, T.” value ([2]; Postemergence, 16 g ai/ha) was 0 and the “Plant response rating, Spiderwort, T.” value ([2]; Postemergence, 31 g ai/ha) was 0. For the same compound, the “Plant response rating, Spiderwort, T.” value ([2]; Postemergence, 62 g ai/ha) was 0.
